Test results as given in patent publication US11091476B2, “Protein kinase inhibitors, preparation method and medical use thereof” (Gan & Lee Pharmaceuticals, priority 2015, dated 2021).

What was measured:
Assay type in all cases: biochemical
CDK6/CyclinD3 = CDK6/CyclinD3 (Homo sapiens (Human), UniProt Q00534); test: CDK kinase inhibitory activity, ADP-Glo Kinase Assay, CDK6/CyclinD3; details: for CDK1/CDK6 / CDK9/CDK6: ratio of IC50s; for CDK1/CDK6: selectivity for CDK6 over CDK1; for CDK9/CDK6: selectivity for CDK6 over CDK9
Protocol: (§1) Measurement of CDK kinase inhibitory activity of the compounds of this disclosure.
(§2) In vitro inhibitory effect of the compounds of the disclosure on CDK (CDK1, CDK4 and CDK6) kinase activity was tested by the following method.
(§3) 1.1 Instrument and Kit Information
(§4) 1.2 Experimental Preparation • 1.2.1 Preparation of Kinase Reaction Buffer I: The 5×Reaction Buffer A (Promega; V307A-C) provided in the kit was mixed and diluted with MILLI-Q® H2O and 0.1 M DTT (dithiothreitol) to give 4× kinase buffer, and then MILLI-Q® H2O was further added to finally formulate the solution into 1× Kinase buffer.
(§5) 1 μl of 10 mM standard substance stock solution was taken and added to 9 μl of kinase reaction buffer I and mixed well; then 90 μl of kinase reaction buffer I was added and mixed well; then 100 μl of kinase reaction buffer I was added and mixed well. The final concentration was 50 μM. • b. 40 μl of kinase reaction buffer II was added into B2 to B10 of a 96-well plate, and 50 μl of the above solution was added into B1; • c. 10 μl of solution was taken from well B1, added into B2, and mixed well; then 10 μl of the resulting solution was taken and added into B3, and dilution was carried out in sequence to B9, so as to obtain control solutions that are diluted by 5-fold sequentially. • (2) Preparation of test compound solution: • a. Test compound solutions at a certain concentration were taken, respectively, diluted with kinase reaction buffer I to a final concentration of 50 μM compound solution; • b. 40 μl of kinase reaction buffer II was added into H2 to H10 of the 96-well plate; and 50 μl of the above solution was added into H1; • c. 10 μl of solution was taken from well H1, added into H2, and mixed well; then 10 μl of the resulting solution was taken and added into H3, and dilution was carried out in sequence to H9, so as to obtain test compound solutions that are diluted by 5-fold sequentially. • 1.2.4 Preparation of a mixed solution of reaction substrate and ATP: • a. Preparation of ATP solution: • 200 μl of 0.1 mM ATP solution: 2 μl of 10 mM ATP was added to 198 μl of kinase reaction buffer I; • 300 μl of 50 μM ATP solution: 150 μl of kinase reaction buffer I was added to 150 μl of the above 0.1 mM ATP solution; • b. Preparation of 300 μl of reaction substrate solution: • 150 μl 1 μg/μl reaction substrate stock solution was added to 150 μl kinase reaction buffer I, and mixed well; • c. The above a/b solutions were mixed to obtain mixed solutions, respectively.
(§6) 1.3 Experimental process: • 1.3.1: 2 μl of compound solutions of various concentrations were taken, added to a 384-well plate, and centrifuged 3 minutes; • 1.3.2: 4 μl of kinase solution was added to each well, centrifuged at 5000 rpm and 18° C. for 10 minutes, and shaken on a plate shaker for 10 minutes; • 1.3.3: 4 μl of mixed solution of substrate and ATP was added to each well, centrifuged at 5000 rpm and 18° C. for 10 minutes, and shaken on a plate shaker at 37° C. for 90 minutes; • 1.3.4: The 384-well plate was taken out, and allowed to stand to room temperature; • 1.3.5: 10 μl of ADP-GLO™ reagent was added to each well, centrifuged at 5000 rpm and 18° C. for 18 minutes, and shaken on a plate shaker at 25° C. for 40 minutes, and then the reaction was stopped; • 1.3.6: 20 μl of kinase detection reagent was added to each well, centrifuged at 5000 rpm and 18° C. for 10 minutes, and shaken on a plate shaker at 25° C. for 30 minutes; and • 1.3.7: M1000pro MICROPLATE READER was used to read […] values.
(§7) The inhibition rate of each compound at each concentration point was calculated by the formula as follows and curve fitting was performed by GraphPad Prism 5 software to obtain the IC50 value.

CDK9/CyclinD3 = CDK9/CyclinD3 (Homo sapiens (Human), UniProt P50750); test: Kinase inhibitory activity, ADP-Glo Kinase Assay, CDK9/CyclinD3
Protocol: as §3, §4, §5, §6, §7

CDK1/CyclinA2 = CDK1/CyclinA2 (Homo sapiens (Human), UniProt P06493); test: CDK kinase inhibitory activity, ADP-Glo Kinase Assay, CDK1/CyclinA2
Protocol: as §1, §2, §3, §4, §5, §6, §7

| Compound | IC50 (CDK6/CyclinD3) | CDK1/CDK6 (CDK6/CyclinD3) | CDK9/CDK6 (CDK6/CyclinD3) | IC50 (CDK9/CyclinD3) | IC50 (CDK1/CyclinA2) |
| --- | --- | --- | --- | --- | --- |
| CCN1CCN(Cc2ccc(Nc3ncc(F)c(-c4cc(F)c5c(c4)C(CC)(CC)C(C)=N5)n3)nc2)CC1 [Example 10] | 47.1 nM | 9.25 | 0.57 | 27 nM | 436 nM |
| CCN1CCN(c2ccc(Nc3ncc(F)c(-c4ccc5c(c4)C4(CCCC4)C(C)=N5)n3)nc2)CC1 [Example 22, N-(5-(4-ethylpiperazin-1-yl)pyridin-2-yl)-5-fluoro-4-(2′-methylspiro[cyclopentane-1,3′-indol]-5′-yl)pyrimidine-2-amino] | 52.5 nM | 17.43 | 0.009 | 0.5 nM | 915 nM |
| CC1=Nc2c(F)cc(-c3nc(Nc4ccc(N5CCN(CCO)CC5)cn4)ncc3F)cc2C12CCCC2 [Example 28, 2-(4-(6-((5-fluoro-4-(7′-fluoro-2′-methylspiro[cyclopentane-1,3′-indol]-5′-yl)pyrimidin-2-yl)amino)pyridin-3-yl)piperazin-1-yl)ethanol] | 6.24 nM | 52.63 | 0.15 | 0.96 nM | 328 nM |
| CC1=Nc2ccc(-c3nc(Nc4ccc(N5CCN(C)CC5)cn4)ncc3F)cc2C12CCCC2 [Example 25, 5-Fluoro-N-(5-(4-methylpiperazin-1-yl)pyridin-2-yl)-4-(2′-methylspiro [cyclopentane-1,3′-indol]-5′-yl)pyrimidine-2-amino] | 8.78 nM | 47.51 | 0.12 | 1.09 nM | 417 nM |
| CCN1CCC(c2ccc(Nc3ncc(F)c(-c4cc(F)c5c(c4)C(C)(CC)C(C)=N5)n3)nc2)CC1 (centres unmarked) [Example 26, 4-(3-ethyl-7-fluoro-2,3-dimethyl-3H-indol-5-yl)-N-(5-(1-ethylpiperidin-4-yl)pyridin-2-yl)-5-fluoropyrimidine-2-amino] | 12.5 nM | 17.27 | 0.88 | 11 nM |  |
| CCN1CCN(Cc2ccc(Nc3ncc(F)c(-c4cc(F)c5c(c4)C(C)(CC)C(C)=N5)n3)nc2)CC1 (centres unmarked) [Example 5, 4-(3-ethyl-7-fluoro-2,3-dimethyl-3H-indol-5-yl)-N-(5-((4-ethylpiperazin-1-yl)methyl)pyridin-2-yl)-5-fluoropyrimidine-2-amino] | 7.53 nM | 58.23 |  |  | 439 nM |

These reach a lower IC50 (CDK6/CyclinD3). Values come first.

| IC50 (CDK6/CyclinD3) | CDK1/CDK6 (CDK6/CyclinD3) | CDK9/CDK6 (CDK6/CyclinD3) | IC50 (CDK9/CyclinD3) | IC50 (CDK1/CyclinA2) | Compound |
| --- | --- | --- | --- | --- | --- |
| 4.31 nM | 6.25 |  |  | 26.9 nM | CC1=Nc2ccc(-c3nc(Nc4ccc(C5CCNCC5)cn4)ncc3F)cc2C12CCCC2 [Example 15, 5-fluoro-4-(2′-methylspiro[cyclopentane-1,3′-indol]-5′-yl)-N-(5-(piperidin-4-yl)pyridin-2-yl)pyrimidine-2-amino] |
| 3.15 nM | 26.20 |  |  | 82.4 nM | CCC1(CC)C(C)=Nc2c(F)cc(-c3nc(Nc4ccc(N5CCNCC5)cn4)ncc3F)cc21 [Example 29, 4-(3,3-diethyl-7-fluoro-2-methyl-3H-indol-5-yl)-5-fluoro-N-(5-(piperazin-4-yl)pyridin-2-yl)pyrimidine-2-amino] |
| 0.49 nM | 360.37 | 0.88 | 0.43 nM | 177 nM | CC1=Nc2c(F)cc(-c3nc(Nc4ccc(C5CCN(CCO)CC5)cn4)ncc3F)cc2C12CCCC2 [Example 30, 2-(4-(6-((5-fluoro-4-(7′-fluoro-2′-methylspiro[cyclopentane-1,3′-indol]-5′-yl)pyrimidin-2-yl)amino)pyridin-3-yl)piperidin-1-yl)ethanol] |
| 0.2 nM | 99.15 |  |  | 19.8 nM | CCC1(CC)C(C)=Nc2c(F)cc(-c3nc(Nc4ccc(C5CCN(C)CC5)cn4)ncc3F)cc21 [Example 38, 4-(3,3-diethyl-7-fluoro-2-methyl-3H-indol-5-yl)-5-fluoro-N-(5-(1-methylpiperidin-4-yl)pyridin-2-yl)pyrimidine-2-amino] |
